ChEMBL document CHEMBL1201862, “PubChem BioAssay data set” (2004)
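Cultured in 96-well plates, cells were exposed to test compound for 48 hours across five concentrations. GI50 is the concentration that inhibits growth by half.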 Activity calls are given as the source filed them. No stated cut-off is given here; in the data, active = GI50 up to about 1.1 µM and inactive = higher.

Key:
Assay in all cases: DTP human tumour cell line panel, 48 h
[1] = system: SNB-75
[2] = system: SK-MEL-28
[3] = system: SK-MEL-5
[4] = system: SK-MEL-2
[5] = system: SW-620
[6] = system: NCI/ADR-RES
[7] = system: NCI-H226
[8] = system: OVCAR-3
[9] = system: UACC-257
[10] = system: NCI-H460
[11] = system: BT-549
[12] = system: A498
[13] = system: EKVX
[14] = system: HCT-116
[15] = system: DU-145
[16] = system: TK-10
[17] = system: SK-OV-3
[18] = system: T47D

Row | Compound | GI50 [1] | GI50 [2] | GI50 [3] | GI50 [4] | GI50 [5] | GI50 [6] | GI50 [7] | GI50 [8] | GI50 [9] | GI50 [10] | GI50 [11] | GI50 [12] | GI50 [13] | GI50 [14] | GI50 [15] | GI50 [16] | GI50 [17] | GI50 [18]
1 | COC(=O)CCC1(O)C=CC(=O)C=C1 | > 100 µM (inactive) | 23.2 µM (inactive) | 31.9 µM (inactive) | > 100 µM (inactive) | 29.8 µM (inactive) | 31.3 µM (inactive) | > 100 µM (inactive) | 24.4 µM (inactive) | 17.1 µM (inactive) | 28.2 µM (inactive) | 58.5 µM (inactive) | > 100 µM (inactive) | > 100 µM (inactive) | 34 µM (inactive) | 36.8 µM (inactive) | 36.7 µM (inactive) | – | –
2 | COC(=O)CCCC(=O)NC1=C(Nc2ccc(OC)cc2)C(=O)c2ccccc2C1=O | 32.2 µM (inactive) | 20.9 µM (inactive) | – | 17.9 µM (inactive) | 40.7 µM (inactive) | 21.9 µM (inactive) | – | 6.25 µM (inactive) | 18.1 µM (inactive) | 15.9 µM (inactive) | 19.5 µM (inactive) | 20.7 µM (inactive) | 21.9 µM (inactive) | 19.7 µM (inactive) | 16.3 µM (inactive) | > 100 µM (inactive) | 34.1 µM (inactive) | 41.3 µM (inactive)
3 | Cc1cn(C2CC(ON3C(=O)c4ccccc4C3=O)C(CO)O2)c(=O)[nH]c1=O (centres undefined) | > 10 µM (inactive) | – | – | > 10 µM (inactive) | > 10 µM (inactive) | > 10 µM (inactive) | > 10 µM (inactive) | > 10 µM (inactive) | > 10 µM (inactive) | > 10 µM (inactive) | > 10 µM (inactive) | – | > 10 µM (inactive) | > 10 µM (inactive) | > 10 µM (inactive) | > 10 µM (inactive) | > 10 µM (inactive) | –
4 | O=C(CC(C(=O)c1cccs1)c1ccsc1)c1ccsc1 (centres undefined) | 25.6 µM (inactive) | 50.5 µM (inactive) | 16.1 µM (inactive) | – | 29.7 µM (inactive) | 24.8 µM (inactive) | – | 40.2 µM (inactive) | 70.5 µM (inactive) | 23 µM (inactive) | 28.3 µM (inactive) | 11.4 µM (inactive) | 38 µM (inactive) | 27.4 µM (inactive) | 44.8 µM (inactive) | > 100 µM (inactive) | 32.1 µM (inactive) | 30.6 µM (inactive)
5 | CC1(C)C2CCC1(C)C(N/C(=C(/C(Cl)=C(Cl)Cl)[N+](=O)[O-])n1nnc3ccccc31)C2 (centres undefined) | 28 µM (inactive) | 36.7 µM (inactive) | – | 22.9 µM (inactive) | 27.2 µM (inactive) | 27.5 µM (inactive) | 19.5 µM (inactive) | 12.4 µM (inactive) | 38.6 µM (inactive) | 37.2 µM (inactive) | 22.2 µM (inactive) | 19.9 µM (inactive) | 32.4 µM (inactive) | 43 µM (inactive) | – | – | 40 µM (inactive) | 32.7 µM (inactive)
6 | N=C(N)C1CN(CC=O)C(=O)NC1=O (centres undefined) | > 100 µM (inactive) | > 100 µM (inactive) | > 100 µM (inactive) | – | > 100 µM (inactive) | > 100 µM (inactive) | > 100 µM (inactive) | > 100 µM (inactive) | > 100 µM (inactive) | > 100 µM (inactive) | > 100 µM (inactive) | > 100 µM (inactive) | > 100 µM (inactive) | > 100 µM (inactive) | > 100 µM (inactive) | > 100 µM (inactive) | > 100 µM (inactive) | > 100 µM (inactive)
7 | COC(=O)C1=C(C(=O)NNc2ccccc2)N(c2cccnc2Cl)C(c2ccccc2)=CC1c1ccccc1 (centres undefined) | > 100 µM (inactive) | 48.2 µM (inactive) | 34 µM (inactive) | 22.4 µM (inactive) | 31.6 µM (inactive) | – | > 100 µM (inactive) | 31.7 µM (inactive) | 41.4 µM (inactive) | 65.2 µM (inactive) | 56.8 µM (inactive) | > 100 µM (inactive) | > 100 µM (inactive) | 23.7 µM (inactive) | 80.9 µM (inactive) | 54.6 µM (inactive) | > 100 µM (inactive) | 26.1 µM (inactive)
8 | O=P(O)(O)C(NCC(O)CN1CCOCC1)P(=O)(O)O (centres undefined) | > 100 µM (inactive) | > 100 µM (inactive) | > 100 µM (inactive) | – | > 100 µM (inactive) | > 100 µM (inactive) | > 100 µM (inactive) | > 100 µM (inactive) | > 100 µM (inactive) | > 100 µM (inactive) | > 100 µM (inactive) | > 100 µM (inactive) | > 100 µM (inactive) | > 100 µM (inactive) | > 100 µM (inactive) | > 100 µM (inactive) | > 100 µM (inactive) | –
9 | O=C(Nc1ccc(Cl)cc1Cl)c1cc2nc3ccccc3c(=O)n2c2ccccc12 | – | > 10 µM (inactive) | > 10 µM (inactive) | > 10 µM (inactive) | > 10 µM (inactive) | > 10 µM (inactive) | – | > 10 µM (inactive) | > 10 µM (inactive) | > 10 µM (inactive) | > 10 µM (inactive) | > 10 µM (inactive) | > 10 µM (inactive) | > 10 µM (inactive) | > 10 µM (inactive) | > 10 µM (inactive) | > 10 µM (inactive) | > 10 µM (inactive)
10 | C=CCc1ccccc1CC1(OCC)OC(=O)c2ccccc21 (centres undefined) | 0.0259 µM (active) | > 100 µM (inactive) | 39.9 µM (inactive) | 89.3 µM (inactive) | > 100 µM (inactive) | – | > 100 µM (inactive) | 41.2 µM (inactive) | 60.7 µM (inactive) | 77.6 µM (inactive) | 96.8 µM (inactive) | > 100 µM (inactive) | > 100 µM (inactive) | 41.2 µM (inactive) | > 100 µM (inactive) | > 100 µM (inactive) | > 100 µM (inactive) | 76.9 µM (inactive)
11 | O=C1Nc2nnc(S)n2NC12c1ccccc1-c1ccccc12 | > 100 µM (inactive) | > 100 µM (inactive) | > 100 µM (inactive) | > 100 µM (inactive) | > 100 µM (inactive) | > 100 µM (inactive) | > 100 µM (inactive) | > 100 µM (inactive) | 17.2 µM (inactive) | 39.4 µM (inactive) | > 100 µM (inactive) | > 100 µM (inactive) | > 100 µM (inactive) | 24.2 µM (inactive) | > 100 µM (inactive) | > 100 µM (inactive) | > 100 µM (inactive) | –
12 | CN1C(=O)CC2CCC(=O)N2c2cccnc21 (centres undefined) | – | > 100 µM (inactive) | > 100 µM (inactive) | > 100 µM (inactive) | > 100 µM (inactive) | > 100 µM (inactive) | > 100 µM (inactive) | > 100 µM (inactive) | > 100 µM (inactive) | > 100 µM (inactive) | > 100 µM (inactive) | – | > 100 µM (inactive) | > 100 µM (inactive) | > 100 µM (inactive) | > 100 µM (inactive) | – | > 100 µM (inactive)
13 | Cc1n[nH]c(=O)n1C1CCCC1 | > 100 µM (inactive) | > 100 µM (inactive) | > 100 µM (inactive) | – | > 100 µM (inactive) | > 100 µM (inactive) | > 100 µM (inactive) | > 100 µM (inactive) | > 100 µM (inactive) | > 100 µM (inactive) | > 100 µM (inactive) | > 100 µM (inactive) | > 100 µM (inactive) | > 100 µM (inactive) | > 100 µM (inactive) | > 100 µM (inactive) | – | > 100 µM (inactive)
14 | CC(=O)C1C(=O)C(=O)N(c2cccc([N+](=O)[O-])c2)C1=O (centres undefined) | > 100 µM (inactive) | > 100 µM (inactive) | > 100 µM (inactive) | > 100 µM (inactive) | > 100 µM (inactive) | > 100 µM (inactive) | > 100 µM (inactive) | > 100 µM (inactive) | > 100 µM (inactive) | > 100 µM (inactive) | > 100 µM (inactive) | – | > 100 µM (inactive) | > 100 µM (inactive) | > 100 µM (inactive) | > 100 µM (inactive) | > 100 µM (inactive) | –
15 | O=c1cc(C(F)(F)F)c2cc3c(cc2o1)NCCC3 | – | > 100 µM (inactive) | 78.3 µM (inactive) | 78.3 µM (inactive) | > 100 µM (inactive) | > 100 µM (inactive) | > 100 µM (inactive) | > 100 µM (inactive) | > 100 µM (inactive) | > 100 µM (inactive) | > 100 µM (inactive) | > 100 µM (inactive) | 6.4 µM (inactive) | 28.8 µM (inactive) | > 100 µM (inactive) | > 100 µM (inactive) | – | 9.46 µM (inactive)
16 | CC(C)(C)OC(=O)Nc1nnc(S(N)(=O)=O)s1 | – | > 100 µM (inactive) | > 100 µM (inactive) | > 100 µM (inactive) | > 100 µM (inactive) | > 100 µM (inactive) | > 100 µM (inactive) | > 100 µM (inactive) | > 100 µM (inactive) | > 100 µM (inactive) | > 100 µM (inactive) | > 100 µM (inactive) | > 100 µM (inactive) | > 100 µM (inactive) | > 100 µM (inactive) | > 100 µM (inactive) | > 100 µM (inactive) | > 100 µM (inactive)
17 | CC(=O)Oc1ccc(/C=C/C(=O)NCCOC(=O)/C=C/c2ccc(OC(C)=O)c(OC(C)=O)c2)cc1OC(C)=O | 20.1 µM (inactive) | 34.4 µM (inactive) | 17.6 µM (inactive) | 46.5 µM (inactive) | 19.3 µM (inactive) | 70.1 µM (inactive) | – | 16.1 µM (inactive) | 31.3 µM (inactive) | 32 µM (inactive) | 38.7 µM (inactive) | 31.7 µM (inactive) | 34.7 µM (inactive) | 14.5 µM (inactive) | 20.6 µM (inactive) | 23 µM (inactive) | 42 µM (inactive) | 20.4 µM (inactive)
